The assay has as its target T1, S. aureus TrmD (Staphylococcus aureus, UniProt Q2FZ43).
T1 construct: made in house; host or cells: E. coli BL21
T1 sequence (Q2FZ43 1-245): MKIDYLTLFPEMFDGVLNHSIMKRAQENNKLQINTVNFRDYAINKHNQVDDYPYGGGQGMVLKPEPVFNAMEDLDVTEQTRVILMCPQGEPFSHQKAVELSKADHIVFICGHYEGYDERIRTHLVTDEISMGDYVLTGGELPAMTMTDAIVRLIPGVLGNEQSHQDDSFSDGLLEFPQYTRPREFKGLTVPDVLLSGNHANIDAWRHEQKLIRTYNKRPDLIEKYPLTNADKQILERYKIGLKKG
The experiment in a line: nanoSAR direct-to-biology FP displacement screening of crude triazoles. In kind it is binding. To be noted: crude triazole at 1 μM, assuming full conversion, 500 nM TrmD, 10 nM tracer 4; for inhibition at 1 µM: read-out: % displaced tracer. In a few lines:
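Crude CuAAC triazoles from alkyne 7 and 320 diverse azides were screened by FP displacement of 10 nM tracer 4 from 500 nM S. aureus TrmD. Buffer was 40 mM Tris HCl, 100 mM NaCl, 10 mM MgCl2, 5% glycerol, pH 7.5.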

Results on 44 compounds are retold here after article PMC12751012, “Nanoscale Direct-to-Biology Optimization and Structural Insights into Selective S. aureus TrmD Inhibitors” (Journal of Medicinal Chemistry, 2025).

SMILES strings stand for the structures.

Consider `O=c1[nH]cnc2[nH]cc(-c3cn(Cc4nccs4)nn3)c12` [Compound 04G04, S1C(=NC=C1)CN2N=NC(C=3C=4C(=O)NC=NC4NC3)=C2], for which the inhibition at 1 µM worked out at 68%. On the same count and under the same terms, then `CC(C)(C)OC(=O)N1CC(c2ocnc2Cn2cc(-c3c[nH]c4nc[nH]c(=O)c34)nn2)C1` [Compound 02B10, O=C(OC(C)(C)C)N1C[C@H](C=2OC=NC2CN3N=NC(C=4C=5C(=O)NC=NC5NC4)=C3)C1], with 37%; and `CC[C@@H](c1ccccc1F)n1cc(-c2c[nH]c3nc[nH]c(=O)c23)nn1` [Compound 02B09, Fc1c(cccc1)[C@@H](N2N=NC(C=3C=4C(=O)NC=NC4NC3)=C2)CC], with 24%; and `O=c1[nH]cnc2[nH]cc(-c3cn(CCCN4CCCC4)nn3)c12` [Compound 03H05, O=C1NC=NC=2NC=C(C=3N=NN(C3)CCC[NH+]4CCCC4)C12], with 40%. Regarding `C[C@H](N)Cn1cc(-c2c[nH]c3nc[nH]c(=O)c23)nn1` [Compound 02F09, O=C1NC=NC2=C1C(C3=CN(C[C@@H](N)C)N=N3)=CN2], the “% displaced tracer” value amounted to 26%. With `O=c1[nH]cnc2[nH]cc(-c3cn([C@@H]4CC[C@H]4F)nn3)c12` [Compound 04C04, F[C@H]1[C@H](N2N=NC(C=3C=4C(=O)NC=NC4NC3)=C2)CC1], the inhibition at 1 µM stood at 21%.

As to `NCCCCn1cc(-c2c[nH]c3nc[nH]c(=O)c23)nn1` [Compound 02E04, O=C1NC=NC=2NC=C(C=3N=NN(C3)CCCC[NH3+])C12], the inhibition at 1 µM stood at 16%. Regarding `COCC(COC)n1cc(-c2c[nH]c3nc[nH]c(=O)c23)nn1` [Compound 03D06, O=C1NC=NC=2NC=C(C=3N=NN(C3)C(COC)COC)C12], the inhibition at 1 µM worked out at 24%. On the same count and under the same terms, then `COc1ccc(-n2cc(-c3c[nH]c4nc[nH]c(=O)c34)nn2)cc1OC` [Compound 01E06, O=C1NC=NC=2NC=C(C=3N=NN(c4cc(OC)c(OC)cc4)C3)C12], with 19%. The same measure, in the same setting: as for `COC(=O)Cn1cc(-c2c[nH]c3nc[nH]c(=O)c23)nn1` [Compound 01E05, O=C(OC)CN1N=NC(C=2C=3C(=O)NC=NC3NC2)=C1], the figure is 11%; as for `C[C@@H](C(=O)Nc1ccccc1)n1cc(-c2c[nH]c3nc[nH]c(=O)c23)nn1` [Compound 01F02, O=C1NC=NC=2NC=C(C=3N=NN(C3)[C@H](C(=O)Nc4ccccc4)C)C12], 28%; as for `O=c1[nH]cnc2[nH]cc(-c3cn(Cc4ccc5c(c4)OCO5)nn3)c12` [Compound 03C03, O=C1NC=NC=2NC=C(C=3N=NN(C3)Cc4cc5OCOc5cc4)C12], 70%.

`COC(=O)C1(n2cc(-c3c[nH]c4nc[nH]c(=O)c34)nn2)CC1` [Compound 03H06, O=C(OC)C1(N2N=NC(C=3C=4C(=O)NC=NC4NC3)=C2)CC1]: the inhibition at 1 µM stood at 24%. With `O=C(Cn1cc(-c2c[nH]c3nc[nH]c(=O)c23)nn1)Nc1ccccc1` [Compound 01A10, O=C1NC=NC=2NC=C(C=3N=NN(C3)CC(=O)Nc4ccccc4)C12], the inhibition at 1 µM came to 41%.

`O=c1[nH]cnc2[nH]cc(-c3cn(C[C@@H]4CCCCNC4)nn3)c12` [Compound 03H08, O=C1NC=NC=2NC=C(C=3N=NN(C3)C[C@H]4C[NH2+]CCCC4)C12]: the inhibition at 1 µM worked out at 81%. With `O=c1[nH]cnc2[nH]cc(-c3cn(Cc4cccnn4)nn3)c12` [Compound 01A03, O=C1NC=NC=2NC=C(C=3N=NN(C3)Cc4nnccc4)C12], the inhibition at 1 µM worked out at 65%. The same measure, in the same setting: as for `CC(C)CCn1cc(-c2c[nH]c3nc[nH]c(=O)c23)nn1` [Compound 01A09, O=C1NC=NC=2NC=C(C=3N=NN(C3)CCC(C)C)C12], the figure is 26%; as for `O=c1[nH]cnc2[nH]cc(-c3cn(Cc4ncon4)nn3)c12` [Compound 01C09, O=C1NC=NC=2NC=C(C=3N=NN(C3)CC4=NOC=N4)C12], 31%. Still for that read-out and setting: then `O=c1[nH]cnc2[nH]cc(-c3cn(CCCc4ccccc4)nn3)c12` [Compound 03H07, O=C1NC=NC=2NC=C(C=3N=NN(C3)CCCc4ccccc4)C12], with 61%.

For the compound `O=c1[nH]cnc2[nH]cc(-c3cn(CCO)nn3)c12` [Compound 04B04, O=C1NC=NC=2NC=C(C=3N=NN(C3)CCO)C12], the inhibition at 1 µM turned out to be 63%. As for `O=c1[nH]cnc2[nH]cc(-c3cn(CCP(=O)(O)O)nn3)c12` [Compound 03C01, P([O-])([O-])(=O)CCN1N=NC(C=2C=3C(=O)NC=NC3NC2)=C1], the inhibition at 1 µM came out at 28%.

Take `Cc1nc2cc(-n3cc(-c4c[nH]c5nc[nH]c(=O)c45)nn3)ccc2[nH]1` [Compound 03G03, O=C1NC=NC=2NC=C(C=3N=NN(c4cc5N=C(Nc5cc4)C)C3)C12]: the inhibition at 1 µM worked out at 21%. For the compound `O=c1[nH]cnc2[nH]cc(-c3cn(Cc4cccc5ccccc45)nn3)c12` [Compound 01F10, O=C1NC=NC=2NC=C(C=3N=NN(C3)Cc4c5c(ccc4)cccc5)C12], the inhibition at 1 µM is 84%.

Take `COc1ccc(C)cc1[C@@H](C)n1cc(-c2c[nH]c3nc[nH]c(=O)c23)nn1` [Compound 04E04, O=C1NC=NC=2NC=C(C=3N=NN(C3)[C@@H](c4c(OC)ccc(c4)C)C)C12]: the inhibition at 1 µM was 65%.

As to `O=c1[nH]cnc2[nH]cc(-c3cn(CC4CNC4)nn3)c12` [Compound 01B06, O=C1NC=NC=2NC=C(C=3N=NN(C3)CC4C[NH2+]C4)C12], the inhibition at 1 µM was determined as 62%.

Regarding `O=c1[nH]cnc2[nH]cc(-c3cn(C[C@@H]4COCCO4)nn3)c12` [Compound 03A10, O=C1NC=NC=2NC=C(C=3N=NN(C3)C[C@H]4OCCOC4)C12], the inhibition at 1 µM is 57%.

For the compound `CC(C)(C)OC(=O)N[C@@]12CC[C@@H](C[C@H]1n1cc(-c3c[nH]c4nc[nH]c(=O)c34)nn1)C2` [Compound 02G08, O=C(OC(C)(C)C)N[C@@]12[C@H](N3N=NC(C=4C=5C(=O)NC=NC5NC4)=C3)C[C@@H](C1)CC2], the inhibition at 1 µM was 12%.

For `O=c1[nH]cnc2[nH]cc(-c3cn([C@H]4CCc5cccnc54)nn3)c12` [Compound 03G04, O=C1NC=NC=2NC=C(C=3N=NN(C3)[C@@H]4c5ncccc5CC4)C12], the inhibition at 1 µM is 49%. Still for that read-out and setting: then `O=C(O)c1ccc(Cn2cc(-c3c[nH]c4nc[nH]c(=O)c34)nn2)cc1` [Compound 02C11, [O-]C(=O)c1ccc(cc1)CN2N=NC(C=3C=4C(=O)NC=NC4NC3)=C2], with 43%.

In the case of `O=c1[nH]cnc2[nH]cc(-c3cn([C@@H]4C[C@H]5CCC[C@@H](C4)N5)nn3)c12` [Compound 01A08, O=C1NC=NC=2NC=C(C=3N=NN(C3)[C@@H]4C[C@@H]5[NH2+][C@H](C4)CCC5)C12], the inhibition at 1 µM is 38%. As for `O=c1[nH]cnc2[nH]cc(-c3cn(-c4cccc5cn[nH]c45)nn3)c12` [Compound 02A05, O=C1NC=NC=2NC=C(C=3N=NN(c4c5NN=Cc5ccc4)C3)C12], the inhibition at 1 µM was 1.22%.

Turning to `O=c1[nH]cnc2[nH]cc(-c3cn(C4CCNCC4)nn3)c12` [Compound 02H04, O=C1NC=NC=2NC=C(C=3N=NN(C3)C4CC[NH2+]CC4)C12], the inhibition at 1 µM amounted to 28%. On to `O=c1[nH]cnc2[nH]cc(-c3cn(Cc4cc(-c5ccco5)on4)nn3)c12` [Compound 03B03, O=C1NC=NC=2NC=C(C=3N=NN(C3)CC4=NOC(C=5OC=CC5)=C4)C12], for which the inhibition at 1 µM came to 49%.

`COc1ccccc1C(C)(C)n1cc(-c2c[nH]c3nc[nH]c(=O)c23)nn1` [Compound 02B08, O=C1NC=NC=2NC=C(C=3N=NN(C3)C(c4c(OC)cccc4)(C)C)C12]: the inhibition at 1 µM was 5.49%. The same measure, in the same setting: then `O=c1[nH]cnc2[nH]cc(-c3cn(-c4cc(Cl)cc(Cl)c4)nn3)c12` [Compound 03E08, Clc1cc(Cl)cc(N2N=NC(C=3C=4C(=O)NC=NC4NC3)=C2)c1], with 23%; and `CCN(CC)C(=O)Cn1cc(-c2c[nH]c3nc[nH]c(=O)c23)nn1` [Compound 01C10, O=C1NC=NC=2NC=C(C=3N=NN(C3)CC(=O)N(CC)CC)C12], with 25%; and `O=c1[nH]cnc2[nH]cc(-c3cn(C[C@H](O)c4ccccc4)nn3)c12` [Compound 04F03, O=C1NC=NC=2NC=C(C=3N=NN(C3)C[C@H](O)c4ccccc4)C12], with 57%.

`O=c1[nH]cnc2[nH]cc(-c3cn(Cc4cscn4)nn3)c12` [Compound 02E07, S1C=NC(=C1)CN2N=NC(C=3C=4C(=O)NC=NC4NC3)=C2]: the inhibition at 1 µM was found to be 80%. Same read-out and setting: then `COc1ccc(Cl)c(-n2cc(-c3c[nH]c4nc[nH]c(=O)c34)nn2)c1` [Compound 02D02, Clc1c(N2N=NC(C=3C=4C(=O)NC=NC4NC3)=C2)cc(OC)cc1], with 3%. Turning to `COC(=O)c1cncc(-n2cc(-c3c[nH]c4nc[nH]c(=O)c34)nn2)c1` [Compound 02F05, O=C(OC)c1cncc(N2N=NC(C=3C=4C(=O)NC=NC4NC3)=C2)c1], the inhibition at 1 µM is 11%. Regarding `O=C(c1ncon1)n1cc(-c2c[nH]c3nc[nH]c(=O)c23)nn1` [Compound 02E12, O=C(N1N=NC(C=2C=3C(=O)NC=NC3NC2)=C1)C4=NOC=N4], the inhibition at 1 µM was determined as 1.83%. As to `O=c1[nH]cnc2[nH]cc(-c3cn(CCOc4ccc(Cl)cc4)nn3)c12` [Compound 03H10, Clc1ccc(OCCN2N=NC(C=3C=4C(=O)NC=NC4NC3)=C2)cc1], the inhibition at 1 µM worked out at 85%. For the compound `O=c1[nH]cnc2[nH]cc(-c3cn(CCn4ccccc4=O)nn3)c12` [Compound 01C11, O=C1N(C=CC=C1)CCN2N=NC(C=3C=4C(=O)NC=NC4NC3)=C2], the inhibition at 1 µM stood at 52%.

As to `O=c1[nH]cnc2[nH]cc(-c3cn(C4COC4)nn3)c12` [Compound 03G09, O=C1NC=NC=2NC=C(C=3N=NN(C3)C4COC4)C12], the inhibition at 1 µM stood at 19%.
